Data on two compounds can be found in US10906876B2, “Tetrahydroisoquinolines as selective NADPH oxidase 2 inhibitors” (University of Pittsburgh—Of the Commonwealth System of …, priority 2013, dated 2021).

Assay [1] has as its target T1, Nox2 (Homo sapiens, UniProt P04839).
T1 construct: expressed in transfected cells
T1 sequence (P04839 2-570 limits assumed): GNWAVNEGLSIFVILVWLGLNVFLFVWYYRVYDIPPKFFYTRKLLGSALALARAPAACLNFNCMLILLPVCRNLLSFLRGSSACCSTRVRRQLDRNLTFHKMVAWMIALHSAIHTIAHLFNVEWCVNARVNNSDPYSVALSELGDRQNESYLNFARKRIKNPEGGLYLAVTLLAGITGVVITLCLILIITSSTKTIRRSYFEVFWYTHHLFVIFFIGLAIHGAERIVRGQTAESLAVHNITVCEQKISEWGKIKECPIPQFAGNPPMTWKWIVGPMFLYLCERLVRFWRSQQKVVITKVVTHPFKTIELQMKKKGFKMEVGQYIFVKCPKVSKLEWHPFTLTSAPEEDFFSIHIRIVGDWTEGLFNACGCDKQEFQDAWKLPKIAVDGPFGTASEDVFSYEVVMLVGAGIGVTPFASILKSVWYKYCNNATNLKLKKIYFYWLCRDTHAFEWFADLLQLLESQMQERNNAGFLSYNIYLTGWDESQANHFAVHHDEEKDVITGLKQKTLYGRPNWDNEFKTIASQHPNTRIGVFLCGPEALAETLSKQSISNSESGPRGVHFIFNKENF
As to the kind of experiment: ROS (H2O2) generation in whole COS-Nox2 cells, Amplex Red assay. Type of assay: cell-based. Conditions: for IC50: whole COS-Nox2 cells stimulated with 5 μM PMA, Amplex Red. The source says:
(§1) All cell culture reagents were obtained from Invitrogen, unless indicated. COS-22 (COS-7 cells stably expressing human p22^phox) and COS-Nox2 (a.k.a. COS-phox) cells (COS-7 cells stably expressing human p22^phox, Nox2, p47^phox and p67^phox) were kindly provided by Dr. Mary C. Dinauer (Indiana University, School of Medicine) (Price et al., Blood, 2002, 99:2653-2661). COS-22 cells were maintained in Dulbecco's Modified Eagle Medium (DMEM) with 4.5 g/L glucose, L-glutamine and sodium pyruvate containing 10% heat-inactivated fetal bovine serum (FBS), 100 units/ml penicillin and 100 μg/ml streptomycin (complete media) supplemented with 1.8 mg/ml G418 (Calbiochem/EMB Bioscience, Gibbstown, N.J.). COS-Nox2 cells were maintained in complete media supplemented with 1.8 mg/mL G418, 1 μg/mL puromycin (Sigma, St Louis, Mo.) and 0.2 mg/mL hygromycin B (Invitrogen, Carlsbad, Calif.). HEK-Nox5 cells were kindly provided by Dr. David Fulton (Georgia Health Sciences University) and maintained in complete media.
H2O2 production was quantified in intact COS-Nox4 cells by Amplex® Red. Briefly, COS-Nox4 cells (5×10^4 cells/ml) were re-plated into 384-well plate in assay buffer (25 mM Hepes, pH 7.4, containing 0.12 M NaCl, 3 mM KCl, 1 mM MgCl2). The cells were incubated in the presence or absence of drugs at 37° C. in assay buffer supplemented with 0.1 mM Amplex® Red, and 0.32 U/ml of horse radish peroxidase (HRP) for 15 min. Fluorescence measurements were made using a Biotek Synergy 4 Hybrid Multi-Mode Microplate Reader with a 530/25-excitation and a 590/35-emission filter. The reaction was monitored at 37° C. for 1 h. A standard curve of known H2O2 concentrations was included on each plate. Nox4 activity was obtained by calculating the rate of H2O2 production as RFU/min and then subtracting the equivalent value given by non-transfected COS-22 cells. Similarly, H2O2 production by Nox2 cells was also measured by Amplex® Red as described above but in the presence of 150 U/mL of SOD and the reaction was initiated by addition of 5 μM PMA. The rate of H2O2 production in this case was calculated as RFU/min after the subtraction of the equivalent value given by non-stimulated cells. Data are expressed as % of vehicle control.
(§2) All data are expressed as means±SEM. IC50 values were determined using the GraphPad Prism software (GraphPad Software, San Diego, Calif.) for non-linear regression three-parameters, with constrain values of 100 and 0 for top and bottom, respectively, and assumes a Hill slope of 1.

For assay [2], the target named is T1, Nox2. As to the kind of experiment: ROS (superoxide) generation in whole COS-Nox2 cells, L-012 chemiluminescence. Type of assay: cell-based. The conditions noted are these: for IC50: whole COS-Nox2 cells stimulated with 5 μM PMA.
Source text: as §1
COS-Nox2, COS-Nox1/NOXO1/NOXA1, HEK-Nox5 and COS-22 cells were re-plated in OPTIMEM into 384-well white micro-plates (Greiner-Bio One GmbH, Germany) at a density of 2.5×10^3 cells/well for COS-Nox2 and 5×10^4 cells/well for all others. The cells were incubated at 37° C. in PBS containing […] L-012 for 10 min. Reaction was initiated by addition of 5 μM PMA in the case of Nox2 or 1 μM PMA/0.1 μM Ionomycin in the case of Nox5. Since Nox1 was constitutively active, Nox1-derived O2^•− was assessed by comparison to non-transfected cells (Cos22). Luminescence was quantified over time using a Biotek Synergy 4 Hybrid Multi-Mode Microplate Reader. The specificity of L-012 for O2^•− was confirmed by the addition of SOD (150 U/mL).
as §2
Heterologous Nox1, 2, 4, and 5 cell systems were used as a testing paradigm to identify a probe molecule that inhibits Nox2 selectively over Nox1, 4, and 5. An acceptable probe would also show a lack of activity against XO, which also produces ROS. The latter screen would serve two purposes: (1) to eliminate drugs that inhibit an oxidase of distinct composition; and (2) to preclude agents that directly scavenge ROS. A cell-based primary assay using stable Nox2-transfected COS cells (Price et al., Blood 2002, 99:2653-2661) with L-012 chemiluminescence (Daiber et al., Free Radic. Biol. Med. 2004, 36:101-111) was used as a detection system for O2^•−-generation.

SMILES strings stand for the structures.

With `C=C(C)CC1C2c3c(Br)cccc3C(CC2(C)C)N1S(=O)(=O)c1ccc(F)cc1` (racemic) [Compound 14b, (±)-(1S,4R,9S)-5-Bromo-10-((4-fluorophenyl)sulfonyl)-3,3-dimethyl-9-(2-methylallyl)-1,2,3,4-tetrahydro-1,4-(epiminomethano)naphthalene], the “Nox2 inhibitory activity” value in assay [1] (Table 2) was “completely abolished activity”. Moreover, the IC50 in assay [1] and in assay [2] was > 100 µM each time.

In the case of `C=C(C)C[C@@H]1N[C@H]2CC(C)(C)[C@@H]1c1c(Br)ccc(Br)c12` [Compound 9], the figures for the IC50 in assay [1] and in assay [2] were 25 ± 10 µM and 40 ± 2.8 µM, respectively. Moreover, in assay [2] (screened at 100, 50, 25, and 12.5 μM, COS-Nox2 cells), the “Activity in primary library screen” value is “active”.
